11 molecules from patent publication US7453006B2, “Inositol derivatives for increasing chloride secretion and inhibiting inflammation” (Inologic, Inc., priority 2000, dated 2008) can be followed below.

For test [1], the system named is arachidonic acid-induced inflammation in mouse ears. The test can be described thus: arachidonic acid-induced inflammation in mouse ears. Format: in vivo. The note with it: for Ear Thickness: 20 nanomoles/ear topical 30 min before arachidonic acid, measured 60 min after arachidonic acid, control 56.5 ± 1.57. The method, then: Arachidonic Acid (Nu-Chek, Elysian, Minn. 56028); Indomethacin (stock=12.5 mg/mL acetone). Prednisolone (Sigma Chem, P6004) 20 mM dissolved in acetone; Animals: Female Balb/c mice (B&K laboratories) and Swiss-Webster hybrid (B& K Laboratory, Kent, Wash.)
The right ear of each mouse was used for the test compound. Unless otherwise indicated each compound was adjusted to 20 mM by dilution into DMSO or DMSO/5% Pluronic F127 as indicated and 1 or 2 microliters were applied to the test ear. Thirty minutes after each compound was applied, 4 mg arachidonic acid was applied (4 μL/ear; 2 μL/side) to both ears of each mouse. Measurements of edema were taken 60 min after the application of arachidonic acid with microcalipers (Oditest, Scientific Supply and Equipment) unless otherwise indicated. The results are shown in FIG. 15 as millimeters×10^−2 measured at the thickest point of each ear. Control measurements were performed on ears that were only treated with arachidonic acid.
Response to prednisolone (20 μL of 20 mM/ear; 10 μl/side) added 3 hrs prior 20′ to arachidonic acid or indomethacin (5 μg/ear) added 30 min prior to test compounds was determined. The results are shown in Table A, where the anti-inflammatory/inflammatory effects of 20 nanomoles/ear of the indicated compounds were tested as described in Methods. Each plus represents a change from control (arachidonic acid alone) of 2.5 mm×10^−2. Effects were compared with those of Indomethacin (400 nmols/ear).
Acute inflammation: Membrane permeant inositol polyphosphate analogs were administered topically and tested for inhibition of inflammatory symptoms induced by arachidonic acid on the ear of Swiss Webster mice.

Test [2] relates to CF Human Nasal Epithelial (CFHNE) cells. The experiment in a line: Cystic Fibrosis Human Nasal Epithelial Cell Assay (Isc, Ussing chambers). Format: cell-based. As to the method:
CF Human Nasal Epithelial (CFHNE) Cell Isolation and Proliferation
Nasal Polyps were surgically obtained from a CF patient at Children's Hospital (Seattle, Wash.), transported on ice in a sterile container containing a 1:1 mixture of Dulbecco's modification of minimum essential medium Eagle and Ham's F-12 nutrient medium (DMEM/F-12) (Irvine Scientific, Santa Ana, Calif.) supplemented with 100 U/mL penicillin, 0.1 mg/mL streptomycin, 10 mM HEPES, and 2 mM L-glutamine. The tissue samples were aseptically removed from the transport medium and washed (repeated 5 times) by suspending in 40 mL of Joklik's modification of minimum essential medium Eagle (JMEM) at 4° C., and centrifuging at 500 rpm. The supernatant was aspirated and discarded. The tissue was then transferred to JMEM containing 200 U/mL penicillin, 0.2 mg/mL streptomycin, 0.1 mg/mL gentamycin sulfate (Clonetics, San Diego, Calif.), and 0.1 μg/mL amphotericin-B (Clonetics), and 0.1% Protease, washed an additional two times, suspended in […] in a 10 cm tissue culture dish, and incubated at 4° C. for 24 hours. The tissue samples were then gently triturated, the connective tissue aseptically removed, and the remaining cell suspension centrifuged at 1000 rpm. The supernatant was aspirated and the pellet was resuspended in 10 mL proliferation media, consisting of Keratinocyte-Serum Free Medium (KSFM) (Gibco-BRL, Grand Island, N.Y.) containing 5 ng/ml EGF (Gibco), 50 μg/mL BPE (Gibco), 5 μg/mL insulin, 5 μg/mL transferrin, 5 μg/ml sodium selenite, 10 nM 3,3′,5-triiodo-L-thyronine, 200 nM hydrocortisone, 100 U/mL penicillin, 0.1 mg/mL streptomycin, and 2 mM L-glutamine. The cell suspension was transferred to 2.10 cm tissue culture dishes coated with 3 μg/cm^2 rat-tail collagen (Type I) (Becton-Dickinson, Bedford, Mass.), incubated at 37° C. in an humidified atmosphere of 5% CO2 and 95% air. The cells were allowed to grow for 6 days (˜70% confluence) with the media being replaced with fresh media every other day. The cells were then trypsinized using 0.025% trypsin-EDTA for 5 min. The cell suspension was collected, the trypsin deactivated with 10% Fetal Bovine Serum, and centrifuged at 1000 rpm for 5 min. The cells were then counted using an hemocytometer with a yield of 3×10^6 cells per dish. The supernatant was aspirated and the cells were resuspended in KSFM and plated at a density of 10^4 cells/cm^2.
CFHNE Cell Ussing Chamber Preparation
The CFHNE cells were prepared for Ussing Chamber studies using Snapwell permeable supports (0.4 μm pore size) (Corning Costar, Cambridge, Mass.) coated with 3 μg/cm^2 rat-tail collagen (type 1). Cells were plated at 9×10^3 cells/cm^2 in KSFM. After 2 days, an air-liquid interface (ALI) was initiated in DMEM/F-12 containing: 2% Fetal Clone III (Hyclone, Logan, Utah), 2.5 μg/mL insulin, 2.5 μg/mL transferrin, 2.5 μg/mL sodium selenite, 20 nM hydrocortisone, 1.5 μM epinephrine, 50 μg/mL BPE, 1 nM 3,3′,5-triiodo-L-thyronine, 3.3 nM All-trans retinoic acid, 250 nM ethanolamine, 250 nM O-phosporylethanolamine, 100 U/mL penicillin, 0.1 mg/ml streptomycin, and 2 mM L-glutamine. The CFHNE monolayers reached maximal resistance (˜200 Ω/cm^2) 5-7 days after initiation of ALI. All media/reagents, unless otherwise specified, were supplied by Sigma Chemical Co., St. Louis, Mo.

Test [3] has as its system T84 cells. The experiment in a line: Colonic Epithelial Cell Assay (Isc across T84 monolayers, Ussing chambers). Format: cell-based, human. As to conditions: for increase in short circuit current (Isc): T84 monolayers in Ussing chambers, differing concentrations (text: colonic and airway epithelial cells); for Isc response to carbachol / inhibition of the Isc response to carbachol / Isc response to thapsigargin following carbachol: 30 min preincubation. As to the method:
Cl^− secretion in colonic epithelial cells was measured as short circuit current (Isc) across T84 monolayers grown to confluence on Snap-wells (Costar) and mounted in Ussing chambers equipped with voltage clamps (Physiologic Instruments, San Diego). Data was acquired and analyzed using AAcquire and Analyze@ software (Physiologic Instruments). T84 cells (passages 18-48) were maintained as described previously in McRoberts, J. A. et al., “Cyclic AMP and Ca^2+-activated K^+ transport pathway in the apical membrane of a human colonic epithelial cell line,” J. Biol. Chem. 260:14163-14172 (1985). After […] of incubation on Snap-wells, monolayers had formed tight junctions and were preincubated with […] Bt2D-myo-Ins(3,4,5,6)P4/AM for 30-min. prior to mounting. An extracellular concentration of 200 uM corresponds to an intracellular concentration of 4 uM (Vajanaphnich, et al., “Long-term uncoupling of chloride secretion from intracellular calcium levels by Ins(3,4,5,6)P4,” Nature 371:711-714 (1994)). […]

[4] abbreviates: topical, ear of Swiss Webster mice.

Several values for one entry are separate records, joined by “and”; a condition that tells them apart may be missing. Identical values can stand only once. Entries after “also recorded” stand apart in the source; their conditions may differ.

For the molecule “2,3,5-tri-O-butyryl-myo-inositol 1,4,6-trisphosphate hexakis-(acetoxymethyl) ester [TMX/AM]”, the “Ear Thickness” value in test [1] is 44.1 ± 2.3 mm × 10^−2. On to `Nc1ncnc2c1ncn2[C@@H]1O[C@H](COP(=O)(O)OP(=O)(O)OP(=O)(O)O)[C@@H](O)[C@H]1O` [ATP, adenosine triphosphate, reference compound], for which, in test [2] (ATP 10^−4 M, monolayers pretreated with vehicle), the “Isc after ATP” value was “transient increase in Isc followed by a prolonged decrease”. In the case of `CC(=O)OCOP(=O)(OCOC(C)=O)O[C@@H]1[C@@H](OP(=O)(OCOC(C)=O)OCOC(C)=O)[C@@H]2O[C@H]3CCC[C@@]2(O3)[C@H](OP(=O)(OCOC(C)=O)OCOC(C)=O)[C@H]1OP(=O)(OCOC(C)=O)OCOC(C)=O` [Tri-cyclo, (1S, 2R, 3S, 4R, 5S, 6S, 8R)-2,3,4,5-tetrakis[[bis-(acetoxymethoxy)phosphoryl]oxy]-7,12-dioxa-tricyclo-[6.3.1.0(1,6)]-dodecane], in test [1], the “Ear Thickness” value is 49.8 ± 2.5 mm × 10^−2. For the molecule “2,3,5-tri-O-butyryl-myo-inositol 1,4,6-trisphosphate hexakis(proprionoxymethyl)ester [TMX]”, in test [2] (CFHNE monolayers exposed to TMX for 10 min, ATP 10^−4 M), the “prolonged decrease in Isc after ATP (negative component of the ATP effect)” value is recorded as “attenuated; also recorded: reverse the negative component of the ATP effect on Isc”. Besides, in test [3], the “increase in short circuit current (Isc)” value is “prolonged increase in Isc similar to cyclic AMP”. With `CCCC(=O)OC1C(OP(=O)(OCOC(C)=O)OCOC(C)=O)C(OP(=O)(OCOC(C)=O)OCOC(C)=O)C(OP(=O)(OCOC(C)=O)OCOC(C)=O)C(OP(=O)(OCOC(C)=O)OCOC(C)=O)C1(CCC)OP(=O)(OCOC(C)=O)OCOC(C)=O` (racemic) [Compound D, rac-1-O-butyryl-2-C-propyl-myo-inositol 2,3,4,5,6-pentakisphosphate-dekakis(acetoxymethyl) ester], in test [3] (200 μM, acute treatment, T84), the “basal Isc” value is given as “small increase in basal Isc; also recorded: small acute effect increasing basal Isc” and the “subsequent carbachol-stimulated Isc” value was “little effect”. Besides, the “Ear Thickness” value in test [1] is 44.0 ± 1.4 mm × 10^−2 and 44.2 ± 6.5 mm × 10^−2. As to `CCCC(=O)OC1C(OC(=O)CCC)C(OP(=O)(OCOC(C)=O)OCOC(C)=O)C(OP(=O)(OCOC(C)=O)OCOC(C)=O)C(OP(=O)(OCOC(C)=O)OCOC(C)=O)C1OP(=O)(OCOC(C)=O)OCOC(C)=O` [D-2,3-Di-O-butyryl-myo-inositol 1,4,5,6 tetrakisphosphate octakis(acetoxymethyl)ester, reference compound], the “dose with inhibitory effect comparable in intensity to that of indomethacin (250 μg/animal)” value in test [1] (setting [4]) is reported as 20-30 μg/animal. Regarding `N=C(N)NC(=O)c1nc(Cl)c(N)nc1N` [Amiloride, amiloride, reference compound], the “decrease in Isc” value in test [2] (amiloride 100 μM, apical compartment, in 19 of 23 monolayers) turned out to be 1.01 μAmps/cm^2. Consider `COCCOCOC12CCCCOC1C(OP(=O)(OCOC(C)=O)OCOC(C)=O)C(OP(=O)(OCOC(C)=O)OCOC(C)=O)C(OP(=O)(OCOC(C)=O)OCOC(C)=O)C2OP(=O)(OCOC(C)=O)OCOC(C)=O` (centres unmarked) [Compound C, (5aa,6a,7b,8a,9b,9aa)-6,7,8,9-tetrakis[[bis(acetoxymethoxy)-phosphoryl]oxy]-5a-[(2′-methoxy)ethoxy]methoxy-decahydro-benzo[b]oxepin], for which, in test [3] (200 μM, T84), the “Isc response to carbachol” value is given as “reduces the magnitude” and the “inhibition of the Isc response to carbachol” value is recorded as “approximately 50%”. For the same molecule, in test [3] (400 μM, T84), the “Isc response to carbachol” value was “reduces the magnitude”, the “Isc response to thapsigargin following carbachol” value is “partially restores the response of the monolayers to thapsigargin” and the “inhibition of the Isc response to carbachol” value is listed as “approximately 50%”. In addition, the “Ear Thickness” value in test [1] was 50.0 ± 5.5 mm × 10^−2.

For the molecule `CCCC(=O)OC12CCCOC1C(OP(=O)(OCOC(C)=O)OCOC(C)=O)C(OP(=O)(OCOC(C)=O)OCOC(C)=O)C(OP(=O)(OCOC(C)=O)OCOC(C)=O)C2OP(=O)(OCOC(C)=O)OCOC(C)=O` (centres unmarked) [Compound G, (4aa, 5a,6b,7a,8b,8aa)-5,6,7,8-tetrakis[[bis(acetoxymethoxy)-phosphoryl]oxy]-4a-butyryloxy-octahydro-chromen], in test [3] (200 μM, T84), the “Isc response to carbachol” value is given as “did not affect” and the “Isc response to thapsigargin following carbachol” value is recorded as “reversed the inhibition of thapsigargin induced chloride secretion; also recorded: reverses the carbachol-mediated inhibition of thapsigargin-stimulated increase in Isc”. Turning to `CCCC(=O)OC1C(OC(=O)CCC)C(OP(=O)(OCOC(=O)CC)OCOC(=O)CC)C(OP(=O)(OCOC(=O)CC)OCOC(=O)CC)C(OP(=O)(OCOC(=O)CC)OCOC(=O)CC)C1OP(=O)(OCOC(=O)CC)OCOC(=O)CC` [D-2,3-Di-O-butyryl-myo-inositol 1,4,5,6 tetrakisphosphate octakis(propionoxymethyl)ester], in test [1] (setting [4]), the “topical anti-inflammatory effects, values” was 0.25-1.5 μg/animal. As to `CCCC(=O)O[C@@H]1[C@H](OC(=O)CCC)[C@H](OP(=O)(OCOC(=O)CC)OCOC(=O)CC)[C@@H](OP(=O)(OCOC(=O)CC)OCOC(=O)CC)[C@H](OC(=O)CCC)[C@H]1OP(=O)(OCOC(=O)CC)OCOC(=O)CC` [ent-TMX, 1,2,5-tri-O-butyryl-myo-inositol 3,4,6-trisphosphate hexakis-(proprionoxymethyl) ester], the “increase in short circuit current (Isc)” value in test [3] is “inactive”.
